# Measurements reported in PMC7725003, “Systematically Studying the Optimal Amino Acid Distribution Patterns of the Amphiphilic Structure by Using the Ultrashort Amphiphiles” (Frontiers in Microbiology, 2020).
# Like-named read-outs stand apart in the source and are kept apart here. Where no end group is shown, it is not given here.
# Legend:
# [1] = test system: E. faecalis 29212; assay type: cell-based, Enterococcus faecalis
# Outline: (§1)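 Inoculum: mid-log phase, MHB, 0.5–1 × 10^6 CFU mL^–1. Peptides: serial dilution in 0.2% BSA, equal volume. Incubation: 24 h, 37°C. Read-out: A492, MIC at 95% inhibition; MBC >99.9% kill after agar subculture.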
# [2] = test system: S. pullorum 7913; assay type: cell-based, Salmonella pullorum
# Outline: as §1
# [3] = test system: P. aeruginosa 27853; assay type: cell-based, Pseudomonas aeruginosa
# Outline: as §1
# [4] = test system: E. coli ATCC 25922; assay: Salt sensitivity assay (MIC); assay type: cell-based, Escherichia coli; details: for MIC, FeCl3: 4 μM FeCl3; for MIC, NH4Cl: 6 μM NH4Cl; for MIC, ZnCl2: 8 μM ZnCl2; for MIC, MgCl2: 1 mM MgCl2; for MIC, CaCl2: 2 mM CaCl2; for MIC, KCl: 4.5 mM KCl; for MIC, NaCl: 150 mM NaCl; for MIC, Control: no added salt, three independent assays
# Outline: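 The salt sensitivity of peptides was tested against E. coli ATCC 25922 using a modified NCCLS broth microdilution MIC method. Mid-log bacteria were diluted in MHB to 0.5–1 × 10^6 CFU mL^–1 and mixed in equal volumes with peptides serially diluted in 0.2% BSA in 96-well plates. Physiological salt was added where specified, and the assay was done three independent times.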
# [5] = test system: S. typhimurium 14028; assay type: cell-based, Salmonella typhimurium
# Outline: as §1
# [6] = test system: S. typhimurium 7731; assay type: cell-based, Salmonella typhimurium
# Outline: as §1
# [7] = test system: all of the tested bacterial strains; assay: Geometric mean of MICs, all tested bacterial strains; assay type: cell-based
# Outline: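 Mid-log bacteria at 0.5–1 × 10^6 CFU mL^–1 in MHB with peptides serially diluted in 0.2% BSA, 24 h at 37°C. MIC is the lowest concentration giving 95% growth inhibition by A492. MBC is the lowest giving >99.9% kill on agar subculture, and the GM is taken over all strains.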
# [8] = test system: E. coli O78; assay type: cell-based, Escherichia coli
# Outline: as §1
# [9] = test system: E. coli 25922; assay type: cell-based, Escherichia coli
# Outline: as §1
# [10] = test system: E. coli UB1005; assay type: cell-based, Escherichia coli
# Outline: as §1
# [11] = test system: MRSA 43300; assay type: cell-based, methicillin-resistant S. aureus
# Outline: as §1
# [12] = test system: S. aureus 25923; assay type: cell-based, Staphylococcus aureus
# Outline: as §1
# [13] = test system: S. aureus 29213; assay type: cell-based, Staphylococcus aureus
# Outline: as §1
# [14] = test system: S. epidermidis 12228; assay type: cell-based, Staphylococcus epidermidis
# Outline: as §1
# [15] = test system: Gram-negative bacteria; details: geometric mean of MBCs, 9 Gram-negative strains (Table 2)
# [16] = test system: Listeria monocytogenes CGMCC 1.1075; assay type: cell-based
# Outline: as §1
# [17] = test system: Gram-positive bacteria; details: geometric mean of MBCs, 7 Gram-positive strains (Table 2)
# [18] = test system: E. coli K88; details: for MIC: MHB, 24 h 37°C, 95% growth inhibition; for MBC: value in brackets, >99.9% of cells killed
# Procedure: (§2) The antimicrobial activities of the peptides were measured using a method adapted from the National Committee for Clinical Laboratory Standards (NCCLS) with some modifications ([Chou et al., 2016]). The specific procedure for these assays has been previously described. In brief, the bacterial cells were grown to a mid-logarithmic phase and diluted in MHB to an ultimate concentration of 0.5–1 × 10^6 CFU mL^–1. Subsequently, the peptides were consecutively diluted in a 0.2% BSA solution and then added to a bacterial solution in a 96-well plate at identical volumes. After incubation for 24 h at 37°C, the MICs were determined to be the lowest peptide concentration that inhibited 95% of the bacterial growth by monitoring the absorbance at 492 nm using a microplate reader. Subsequently, 50 μL of each incubation mixture was further transferred to agar plates and incubated overnight. […] Every assay was reproduced more than 3 times.
# [19] = test system: E. coli K99; details: for MIC: MHB, 24 h 37°C, 95% growth inhibition; for MBC: value in brackets, >99.9% of cells killed
# Procedure: as §2
# [20] = test system: B. subtilis 63501; assay type: cell-based, Bacillus subtilis
# Outline: as §1
# [21] = test system: S. aureus 29213; assay: Salt sensitivity assay (MIC); assay type: cell-based, Staphylococcus aureus; details: for MIC, FeCl3: 4 μM FeCl3; for MIC, NH4Cl: 6 μM NH4Cl; for MIC, ZnCl2: 8 μM ZnCl2; for MIC, MgCl2: 1 mM MgCl2; for MIC, CaCl2: 2 mM CaCl2; for MIC, KCl: 4.5 mM KCl; for MIC, NaCl: 150 mM NaCl; for MIC, Control: no added salt, three independent assays
# Outline: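 MICs determined by broth microdilution in MHB with 0.5–1 × 10^6 CFU/mL, peptides serially diluted in 0.2% BSA, 24 h at 37°C. Medium supplemented with physiological salts (150 mM NaCl, 4.5 mM KCl, 6 μM NH4Cl, 8 μM ZnCl2, 1 mM MgCl2, 2mM CaCl2, 4 μM FeCl3). MIC = lowest concentration inhibiting 95% growth (A492).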
# [22] = test system: Gram-negative bacteria; details: for GM MIC: geometric mean of MICs, 9 Gram-negative strains (Table 2)
# Outline: (§3)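 Broth microdilution adapted from NCCLS: mid-log bacteria diluted in MHB to 0.5–1 × 10^6 CFU mL^–1, mixed with peptides serially diluted in 0.2% BSA. After 24 h at 37°C, MIC taken as the lowest concentration inhibiting 95% of growth by absorbance at 492 nm. Assays repeated more than 3 times.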
# [23] = test system: Gram-positive bacteria; details: for GM MIC: geometric mean of MICs, 7 Gram-positive strains (Table 2)
# Outline: as §3
# [24] = therapeutic index TI = MHC/GM MIC
# [25] = MHB, 24 h 37°C, 95% growth inhibition
# [26] = value in brackets, >99.9% of cells killed
substance,measurement,setting,value
LRRLRLRLL-NH2 [L3],MIC,"[1]; 29212, 24 h",> 64 µM
same,MBC,"[2]; 7913, 24 h",16 µM
same,MIC,"[2]; 7913, 24 h",8 µM
same,MBC,"[3]; 27853, 24 h",128 µM
same,MIC,"[3]; 27853, 24 h",64 µM
same,"MIC, FeCl3",[4],16 µM
same,"MIC, NH4Cl",[4],16 µM
same,"MIC, ZnCl2",[4],16 µM
same,"MIC, MgCl2",[4],32 µM
same,"MIC, CaCl2",[4],32 µM
same,"MIC, KCl",[4],8 µM
same,"MIC, NaCl",[4],32 µM
same,"MIC, Control",[4],8 µM
same,MBC,"[5]; 14028, 24 h",128 µM
same,MIC,"[5]; 14028, 24 h",64 µM
same,MBC,"[6]; 7731, 24 h",64 µM
same,MIC,"[6]; 7731, 24 h",32 µM
same,"GM, All",[7]; geometric mean of MICs across all tested strains,32.00 µM
same,"TI, All",[7]; [24],8.00
same,MBC,"[8]; O78, 24 h",32 µM
same,MIC,"[8]; O78, 24 h",16 µM
same,MBC,"[9]; 25922, 24 h",16 µM
same,MIC,"[9]; 25922, 24 h",8 µM
same,MBC,"[10]; UB1005, 24 h",32 µM
same,MIC,"[10]; UB1005, 24 h",16 µM
same,MIC,"[11]; 43300, 24 h",>64 µM
same,MIC,"[12]; 25923, 24 h",> 64 µM
same,MIC,"[13]; 29213, 24 h",>64 µM
same,MIC,"[14]; 12228, 24 h",> 64 µM
same,GM MBC,[15],37.33 µM
same,MBC,"[16]; CGMCC 1.1075, 24 h",32 µM
same,MIC,"[16]; CGMCC 1.1075, 24 h",16 µM
same,GM MBC,[17],78.02 µM
same,MIC,[18],8 µM
same,MBC,[18],16 µM
same,MIC,[19],16 µM
same,MBC,[19],32 µM
same,MBC,"[20]; 63501, 24 h",16 µM
same,MIC,"[20]; 63501, 24 h",8 µM
same,"MIC, FeCl3",[21],> 64 µM
same,"MIC, NH4Cl",[21],> 64 µM
same,"MIC, ZnCl2",[21],> 64 µM
same,"MIC, MgCl2",[21],> 64 µM
same,"MIC, CaCl2",[21],> 64 µM
same,"MIC, KCl",[21],> 64 µM
same,"MIC, NaCl",[21],> 64 µM
same,"MIC, Control",[21],> 64 µM
same,GM MIC,[22],18.66 µM
same,"TI, Gram-negative bacteria",[22]; [24],13.72
same,GM MIC,[23],64.00 µM
same,"TI, Gram-positive bacteria",[23]; [24],4.00
Polymyxin B [reference compound],MIC,[1]; [25],32 µM
same,MBC,[1]; [26],> 64 µM
same,MIC,[2]; [25],4 µM
same,MBC,[2]; [26],8 µM
same,MIC,[3]; [25],8 µM
same,MBC,[3]; [26],16 µM
same,"MIC, FeCl3",[4],4 µM
same,"MIC, NH4Cl",[4],4 µM
same,"MIC, ZnCl2",[4],4 µM
same,"MIC, MgCl2",[4],4 µM
same,"MIC, CaCl2",[4],8 µM
same,"MIC, KCl",[4],8 µM
same,"MIC, NaCl",[4],8 µM
same,"MIC, Control",[4],4 µM
same,MIC,[5]; [25],4 µM
same,MBC,[5]; [26],8 µM
same,MIC,[6]; [25],2 µM
same,MBC,[6]; [26],4 µM
same,MIC,[8]; [25],2 µM
same,MBC,[8]; [26],4 µM
same,MIC,"[9]; MHB, 0.5–1 × 10^6 CFU/mL, 24 h 37°C, lowest concentration inhibiting 95% of growth (A492), more than 3 repeats",4 µM
same,MBC,"[9]; value in brackets, agar plating, lowest concentration killing >99.9% of cells",8 µM
same,MIC,[10]; [25],2 µM
same,MBC,[10]; [26],4 µM
same,MIC,[11]; [25],2 µM
same,MBC,[11]; [26],4 µM
same,MIC,[12]; [25],2 µM
same,MBC,[12]; [26],4 µM
same,MIC,[13]; [25],4 µM
same,MBC,[13]; [26],8 µM
same,MIC,[14]; [25],2 µM
same,MBC,[14]; [26],4 µM
same,GM MBC,[15],5.88 µM
same,MIC,[16]; [25],32 µM
same,MBC,[16]; [26],> 64 µM
same,GM MBC,[17],10.77 µM
same,MIC,[18],2 µM
same,MBC,[18],4 µM
same,MIC,[19],2 µM
same,MBC,[19],4 µM
same,MIC,[20]; [25],1 µM
same,MBC,[20]; [26],2 µM
same,"MIC, FeCl3",[21],16 µM
same,"MIC, NH4Cl",[21],16 µM
same,"MIC, ZnCl2",[21],16 µM
same,"MIC, MgCl2",[21],16 µM
same,"MIC, CaCl2",[21],64 µM
same,"MIC, KCl",[21],16 µM
same,"MIC, NaCl",[21],32 µM
same,"MIC, Control",[21],16 µM
same,GM MIC,[22],2.94 µM
same,GM MIC,[23],4.42 µM
